T1: recombinant TCE2 (Tetranychus cinnabarinus, UniProt B3TFG7)
T1 construct: pCold II (vector His tag), E. coli BL21(DE3), Ni-NTA purified; about 63 kDa
T1 sequence (B3TFG7 24-560): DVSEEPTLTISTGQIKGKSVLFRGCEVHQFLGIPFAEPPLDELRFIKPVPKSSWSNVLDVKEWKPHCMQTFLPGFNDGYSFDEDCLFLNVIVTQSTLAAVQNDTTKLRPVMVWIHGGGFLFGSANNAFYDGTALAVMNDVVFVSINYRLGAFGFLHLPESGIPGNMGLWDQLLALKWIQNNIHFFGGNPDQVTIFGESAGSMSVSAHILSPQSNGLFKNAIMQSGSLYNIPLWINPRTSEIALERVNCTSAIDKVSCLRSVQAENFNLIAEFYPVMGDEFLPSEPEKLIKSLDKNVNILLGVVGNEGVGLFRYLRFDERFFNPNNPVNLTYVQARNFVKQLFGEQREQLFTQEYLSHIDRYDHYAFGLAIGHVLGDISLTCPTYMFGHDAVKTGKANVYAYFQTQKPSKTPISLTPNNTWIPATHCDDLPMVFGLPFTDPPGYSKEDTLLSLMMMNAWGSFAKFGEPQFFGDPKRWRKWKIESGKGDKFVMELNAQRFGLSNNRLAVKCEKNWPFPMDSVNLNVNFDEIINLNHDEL

B1: recombinant TCE2 (Tetranychus cinnabarinus) (protein)
chain: T1 sequence (B3TFG7 24-560)
notes: pCold II (vector His tag), E. coli BL21(DE3), Ni-NTA purified; about 63 kDa

Experiments:
[1] = target: T1, recombinant TCE2; experiment: colorimetric esterase inhibition assay, microplate (Fast blue B, […] nm); type: biochemical
[2] = target: T1, recombinant TCE2; experiment: Dixon plot, colorimetric esterase assay (Fast blue B); type: biochemical
[3] = substrate: CC(=O)Oc1cccc2ccccc12; experiment: purified protein; type: biochemical, Tetranychus cinnabarinus; details: 0.04 M PBS pH 7.4, 30 °C, 10 min

Row | Molecule | IC50 [1] [µM] | Ki [2] [µM] | Km [3] [µM] | Vmax [3] [µmol/min/mg]
1 | CC1(C)C(C(=O)OC(C#N)c2cccc(Oc3ccccc3)c2)C1(C)C (stereo not drawn) [fenpropathrin] | 235 ± 15.3 | 356 ± 35.4 | – | –
2 | COCCOC(=O)C(C#N)(C(=O)c1ccccc1C(F)(F)F)c1ccc(C(C)(C)C)cc1 (stereo not drawn) [cyflumetofen] | 129 ± 12.7 | 182 ± 17.7 | – | –
3 | B1 | – | – | 30.5 ± 5.9 | 0.448
